# Patent publication US20150374673A1, “Combination Therapy for the Treatment of Nosocomial Pneumonia” (priority 2013, published 2015)
# Legend:
# [1] = tested on: K. pneumoniae; assay: MIC, CLSI broth microdilution in CAMHB with 0-10% pulmonary surfactant (avibactam fixed at 4 μg/mL in combination); assay type: cell-based; details: Klebsiella pneumoniae
# Experimental: (§1) The bacterial strains used in this testing were part of the microbiological culture collection housed at AstraZeneca R&D Boston (AstraZeneca Research Collection, designated ARC). The panel of bacterial isolates used for this testing was comprised of five CLSI QC reference strains and the remainder were either recent clinical isolates expressing β-lactamases or isolates from the primary bacterial screening panels.
# (§2) MIC values were determined using the CLSI broth microdilution methodology with slight variation. Stock compound mother plates were prepared and used to spot 2 μL aliquots of serial 2-fold drug dilutions to columns 1-11 of 96-well daughter plates using a Perkin-Elmer MiniTrak™ MultiPosition dispenser. […] An inoculum volume of 100 μL (5×10E^5 CFU/mL) in CAMHB containing 0, 1, 2.5, 5, or 10% pulmonary surfactant was added using a multichannel Finnpipette® to each well of the 96-well plate.
# (§3) The minimum inhibitory concentration (MIC) values against each organism/drug combination were determined using broth microdilution methodology according to CLSI guidelines. The recommended reference bacterial strains for each test group and reference compounds were incorporated into each test. For Gram-negatives, the reference bacterial strains were Escherichia coli ATCC 25922, E. coli ATCC 35218, Klebsiella pneumoniae ATCC 700603, and Pseudomonas aeruginosa ATCC 27853. Staphylococcus aureus ATCC 29213 was the reference bacterial strain for the Gram-positives.
# (§4) MIC values for individual isolates were read visually. The MICs for each compound or combination in pulmonary surfactant was compared to the compound or combination tested in CAMHB alone.
# [2] = tested on: E. coli; assay: as above; assay type: cell-based; details: Escherichia coli
# Experimental: as §1, §2, §3, §4
# [3] = Serum and epithelial lining fluid (ELF) pharmacokinetics of ceftazidime-avibactam human simulated regimen in infected and uninfected mice; details: for fT > MIC: MIC 4, human simulated CAZ-AVI 2000-500 mg q8h 2 h infusion; for Kp at 16 h / Kp at 18.5 h / Kp at 22 h / Kp at 24 h: female, ICR, mouse, epithelial lining fluid (ELF) vs serum, ELF point Penetration Ratio, ELF vs serum, third dosing interval
# Experimental: Pathogen-free, female ICR mice weighing approximately 25 g were acquired from Harlan Sprague Dawley, Inc. (Indianapolis, Ind.) and utilized throughout these experiments. Animals were maintained and used in accordance to National Research Council recommendations, and provided food and water ad libitum. Mice were rendered neutropenic with 100 and 250 mg/kg intraperitoneal injections of cyclophosphamide (Cytoxan®; Bristol-Myers Squibb, Princeton, N.J.) given one and four days prior to inoculation, respectively. Three days prior to inoculation, mice were also given a single 5 mg/kg intraperitoneal injection of uranyl nitrate. This produces a predictable degree of renal impairment to slow drug clearance. Two hours prior to the initiation of antimicrobial therapy, mice were lightly anesthetized using isofluorane (2.5% v/v in 100% oxygen carrier) until the respiratory rate decreased upon visual inspection. Pneumonia was induced by the instillation of 0.05 mL of a 10^7 CFU inoculum of the test isolate suspended in 3% mucin in normal saline. While the mouse is anesthetized, the inoculum is delivered into the animal's oral cavity, blocking the nares and holding the mouse in a vertical position. Aspiration of bacteria into the lungs occurred as the animals began to spontaneously respire.
# In these studies, we utilized the previously determined dosing regimen described above. Confirmatory serum pharmacokinetic studies were undertaken in infected mice. For these studies, infected neutropenic mice were dosed with the above calculated regimen and groups of six mice ? were euthanized at multiple time points throughout a 24 h period to confirm target exposures blood was collected via cardiac puncture and the serum samples were stored at −80° C. until analysis. Pharmacokinetic studies were undertaken to describe the epithelial lining fluid concentrations in infected mice. For these studies, infected neutropenic mice were dosed with the above calculated regimen and groups of six mice were euthanized at multiple time points throughout the third dosing period (i.e. 16-24 h). Once euthanized, serum and BAL samples were collected as described above. Serum and BAL samples were stored at −80° C. until analysis.
# [4] = Protein binding, equilibrium dialysis chamber, LC-MS/MS; assay type: in vitro ADME
# Experimental: Blood was separated from plasma using a cooled centrifuge. Samples were split and stored at −80° C.
structure (smiles),measurement,setting,value
"NC(=O)[C@@H]1CC[C@@H]2CN1C(=O)N2OS(=O)(=O)[O-].[Na+] [avibactam, [(2S,5R)-2-carbamoyl-7-oxo-1,6-diazabicyclo[3.2.1]octan-6-yl]hydrogen sulfate]",MIC,"[1]; ATCC700603, K. pneumoniae ARC561 (ATCC 700603; SHV-18, OXA-2, OKP-6), surfactant 0%",> 64 µg/mL
same,MIC,"[1]; ATCC700603, K. pneumoniae ARC561 (ATCC 700603; SHV-18, OXA-2, OKP-6), surfactant 1%",> 64 µg/mL
same,MIC,"[1]; ATCC700603, K. pneumoniae ARC561 (ATCC 700603; SHV-18, OXA-2, OKP-6), surfactant 2.5%",> 64 µg/mL
same,MIC,"[1]; ATCC700603, K. pneumoniae ARC561 (ATCC 700603; SHV-18, OXA-2, OKP-6), surfactant 5%",64 µg/mL
same,MIC,"[1]; ATCC700603, K. pneumoniae ARC561 (ATCC 700603; SHV-18, OXA-2, OKP-6), surfactant 10%",64 µg/mL
same,MIC,"[1]; K. pneumoniae ARC1865 (Primary Screening Panel), surfactant 1%",> 64 µg/mL
same,MIC,"[1]; K. pneumoniae ARC1865 (Primary Screening Panel), surfactant 2.5%",64 µg/mL
same,MIC,"[1]; K. pneumoniae ARC1865 (Primary Screening Panel), surfactant 5%",> 64 µg/mL
same,MIC,"[1]; K. pneumoniae ARC1865 (Primary Screening Panel), surfactant 10%",> 64 µg/mL
same,MIC,"[1]; K. pneumoniae ARC1865 (Primary Screening Panel), surfactant concentration cell empty",> 64 µg/mL
same,MIC,"[1]; K. pneumoniae ARC2528 (Clinical isolate), surfactant 0%",64 µg/mL
same,MIC,"[1]; K. pneumoniae ARC2528 (Clinical isolate), surfactant 1%",64 µg/mL
same,MIC,"[1]; K. pneumoniae ARC2528 (Clinical isolate), surfactant 2.5%",64 µg/mL
same,MIC,"[1]; K. pneumoniae ARC2528 (Clinical isolate), surfactant 5%",64 µg/mL
same,MIC,"[1]; K. pneumoniae ARC2528 (Clinical isolate), surfactant 10%",32 µg/mL
same,MIC,"[1]; K. pneumoniae ARC2929 (KPC-3), surfactant 0%",8 µg/mL
same,MIC,"[1]; K. pneumoniae ARC2929 (KPC-3), surfactant 1%",8 µg/mL
same,MIC,"[1]; K. pneumoniae ARC2929 (KPC-3), surfactant 2.5%",8 µg/mL
same,MIC,"[1]; K. pneumoniae ARC2929 (KPC-3), surfactant 5%",8 µg/mL
same,MIC,"[1]; K. pneumoniae ARC2929 (KPC-3), surfactant 10%",8 µg/mL
same,MIC,"[1]; K. pneumoniae ARC2945 (KPC-2, SHV-11, TEM-1, OXA-9), surfactant 0%",8 µg/mL
same,MIC,"[1]; K. pneumoniae ARC2945 (KPC-2, SHV-11, TEM-1, OXA-9), surfactant 1%",8 µg/mL
same,MIC,"[1]; K. pneumoniae ARC2945 (KPC-2, SHV-11, TEM-1, OXA-9), surfactant 2.5%",8 µg/mL
same,MIC,"[1]; K. pneumoniae ARC2945 (KPC-2, SHV-11, TEM-1, OXA-9), surfactant 5%",8 µg/mL
same,MIC,"[1]; K. pneumoniae ARC2945 (KPC-2, SHV-11, TEM-1, OXA-9), surfactant 10%",8 µg/mL
same,MIC,"[1]; K. pneumoniae ARC3713 (CTX-M-15, OXA-1/30, SHV-5, TEM-1), surfactant 0%",16 µg/mL
same,MIC,"[1]; K. pneumoniae ARC3713 (CTX-M-15, OXA-1/30, SHV-5, TEM-1), surfactant 1%",16 µg/mL
same,MIC,"[1]; K. pneumoniae ARC3713 (CTX-M-15, OXA-1/30, SHV-5, TEM-1), surfactant 2.5%",16 µg/mL
same,MIC,"[1]; K. pneumoniae ARC3713 (CTX-M-15, OXA-1/30, SHV-5, TEM-1), surfactant 5%",16 µg/mL
same,MIC,"[1]; K. pneumoniae ARC3713 (CTX-M-15, OXA-1/30, SHV-5, TEM-1), surfactant 10%",16 µg/mL
same,MIC,"[2]; ATCC25922, E. coli ARC4 (CLSI QC strain, ATCC 25922), surfactant 0%",32 µg/mL
same,MIC,"[2]; ATCC25922, E. coli ARC4 (CLSI QC strain, ATCC 25922), surfactant 1%",32 µg/mL
same,MIC,"[2]; ATCC25922, E. coli ARC4 (CLSI QC strain, ATCC 25922), surfactant 2.5%",32 µg/mL
same,MIC,"[2]; ATCC25922, E. coli ARC4 (CLSI QC strain, ATCC 25922), surfactant 5%",16 µg/mL
same,MIC,"[2]; ATCC25922, E. coli ARC4 (CLSI QC strain, ATCC 25922), surfactant 10%",16 µg/mL
same,MIC,"[2]; ATCC35218, E. coli ARC016 (ATCC 35218, TEM-1), surfactant 0%",16 µg/mL
same,MIC,"[2]; ATCC35218, E. coli ARC016 (ATCC 35218, TEM-1), surfactant 1%",16 µg/mL
same,MIC,"[2]; ATCC35218, E. coli ARC016 (ATCC 35218, TEM-1), surfactant 2.5%",16 µg/mL
same,MIC,"[2]; ATCC35218, E. coli ARC016 (ATCC 35218, TEM-1), surfactant 5%",16 µg/mL
same,MIC,"[2]; ATCC35218, E. coli ARC016 (ATCC 35218, TEM-1), surfactant 10%",16 µg/mL
same,MIC,"[2]; E. coli ARC523 (W3110), surfactant 0%",> 64 µg/mL
same,MIC,"[2]; E. coli ARC523 (W3110), surfactant 1%",> 64 µg/mL
same,MIC,"[2]; E. coli ARC523 (W3110), surfactant 2.5%",> 64 µg/mL
same,MIC,"[2]; E. coli ARC523 (W3110), surfactant 5%",> 64 µg/mL
same,MIC,"[2]; E. coli ARC523 (W3110), surfactant 10%",> 64 µg/mL
same,MIC,"[2]; E. coli ARC3666 (CTX-M-15, OXA-1/30, SHV-31, TEM-1), surfactant 0%",8 µg/mL
same,MIC,"[2]; E. coli ARC3666 (CTX-M-15, OXA-1/30, SHV-31, TEM-1), surfactant 1%",8 µg/mL
same,MIC,"[2]; E. coli ARC3666 (CTX-M-15, OXA-1/30, SHV-31, TEM-1), surfactant 2.5%",8 µg/mL
same,MIC,"[2]; E. coli ARC3666 (CTX-M-15, OXA-1/30, SHV-31, TEM-1), surfactant 5%",8 µg/mL
same,MIC,"[2]; E. coli ARC3666 (CTX-M-15, OXA-1/30, SHV-31, TEM-1), surfactant 10%",8 µg/mL
same,MIC,"[2]; E. coli ARC3690 (CTX-M-15, SHV-12), surfactant 0%",16 µg/mL
same,MIC,"[2]; E. coli ARC3690 (CTX-M-15, SHV-12), surfactant 1%",16 µg/mL
same,MIC,"[2]; E. coli ARC3690 (CTX-M-15, SHV-12), surfactant 2.5%",16 µg/mL
same,MIC,"[2]; E. coli ARC3690 (CTX-M-15, SHV-12), surfactant 5%",16 µg/mL
same,MIC,"[2]; E. coli ARC3690 (CTX-M-15, SHV-12), surfactant 10%",16 µg/mL
same,fT > MIC,"[3]; ELF, infected mice",3%
same,fT > MIC,"[3]; ELF, uninfected mice",19%
same,fT > MIC,"[3]; Serum, infected mice",34%
same,fT > MIC,"[3]; Serum, uninfected mice",19%
same,Kp at 16 h,[3]; infected mice,0.59
same,Kp at 18.5 h,[3]; infected mice,0.66
same,Kp at 22 h,[3]; infected mice,0.69
same,Kp at 24 h,[3]; infected mice,0.8
same,Kp at 16 h,[3]; uninfected mice,0.86
same,Kp at 18.5 h,[3]; uninfected mice,0.74
same,Kp at 22 h,[3]; uninfected mice,0.93
same,Kp at 24 h,[3]; uninfected mice,0.95
same,fraction unbound,[4],0.92
